# According to PubChem BioAssay (NCI):
#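 Growth conditions: 96-well plates. Treatment: test compound, 48 hours, 5 concentrations. Analysis: linear interpolation between bracketing concentrations; unreached endpoints set to highest concentration. GI50 = concentration required for 50% inhibition of growth. Definition used: TGI = concentration required for complete inhibition of growth.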
# Assays:
# Test in all cases: NCI-60 cell line screen, 48 h
# [1] = test system: OVCAR-5 ovarian
# [2] = test system: OVCAR-3 ovarian
# [3] = test system: CCRF-CEM leukemia
# [4] = test system: LOX IMVI melanoma
# [5] = test system: SK-OV-3 ovarian
# [6] = test system: SW-620 colon
# [7] = test system: HCT-116 colon
# [8] = test system: NCI-H460 lung
# [9] = test system: UACC-62 melanoma
# [10] = test system: SNB-75 CNS
# [11] = test system: NCI/ADR-RES ovarian
# [12] = test system: NCI-H23 lung
# [13] = test system: HL-60(TB) leukemia
# [14] = test system: MOLT-4 leukemia
# [15] = test system: MDA-MB-231 breast
# [16] = test system: SR leukemia
# [17] = test system: HOP-62 NSCLC
# [18] = test system: NCI-H522 lung
# [19] = test system: BT-549 breast
# [20] = test system: IGROV1 ovarian
# [21] = test system: RPMI-8226 leukemia
# [22] = test system: ACHN renal
# [23] = test system: HCC-2998 colon
# [24] = test system: SNB-19 CNS
# [25] = test system: NCI-H226 lung
# [26] = test system: PC-3 prostate
# [27] = test system: OVCAR-8 ovarian
# [28] = test system: SF-539 CNS
# [29] = test system: TK-10 renal
# [30] = test system: SK-MEL-2 melanoma
# [31] = test system: SK-MEL-28 melanoma
# [32] = test system: UACC-257 melanoma
# [33] = test system: MALME-3M melanoma
# [34] = test system: CAKI-1 renal
# [35] = test system: UO-31 renal
# [36] = test system: K-562 leukemia
# [37] = test system: SF-268 CNS
# [38] = test system: A498 renal
# [39] = test system: RXF 393 renal
# [40] = test system: SN12C renal
# [41] = test system: A549 NSCLC
# [42] = test system: DU-145 prostate
# [43] = test system: SF-295 CNS
# [44] = test system: HCT-15 colon
# [45] = test system: OVCAR-4 ovarian
# [46] = test system: HOP-92 NSCLC
# [47] = test system: KM12 colon
# [48] = test system: T-47D breast
# [49] = test system: HT29 colon
# [50] = test system: EKVX NSCLC
# [51] = test system: SK-MEL-5 melanoma
# [52] = test system: COLO 205 colon
# [53] = test system: 786-0 renal
# [54] = test system: HS 578T breast
# [55] = test system: MCF7 breast
# [56] = test system: U251 CNS
# [57] = test system: MDA-MB-435
# [58] = test system: M14 melanoma
structure (smiles),measurement,setting,value
O=C(Nc1ccc(-c2nc(-c3cccc(O)c3)c(-c3ccnc(Br)c3)[nH]2)cc1)c1ccccc1,GI50,[1],2920 nM
same,TGI,[1],19100 nM
same,GI50,[2],2090 nM
same,TGI,[2],5670 nM
same,GI50,[3],1320 nM
same,TGI,[3],> 100000 nM
same,GI50,[4],1520 nM
same,TGI,[4],3950 nM
same,GI50,[5],2680 nM
same,TGI,[5],7090 nM
same,GI50,[6],2370 nM
same,TGI,[6],7170 nM
same,GI50,[7],2260 nM
same,TGI,[7],7600 nM
same,GI50,[8],2450 nM
same,TGI,[8],6520 nM
same,GI50,[9],1730 nM
same,TGI,[9],4090 nM
same,GI50,[10],286 nM
same,TGI,[10],3370 nM
same,GI50,[11],3000 nM
same,TGI,[11],12400 nM
same,GI50,[12],2040 nM
same,TGI,[12],4780 nM
same,GI50,[13],1370 nM
same,TGI,[13],6820 nM
same,GI50,[14],2000 nM
same,TGI,[14],7480 nM
same,GI50,[15],2590 nM
same,TGI,[15],17100 nM
same,GI50,[16],1260 nM
same,TGI,[16],> 100000 nM
same,GI50,[17],2540 nM
same,TGI,[17],9050 nM
same,GI50,[18],2010 nM
same,TGI,[18],5350 nM
same,GI50,[19],1800 nM
same,TGI,[19],5790 nM
same,GI50,[20],2620 nM
same,TGI,[20],6530 nM
same,GI50,[21],595 nM
same,TGI,[21],2890 nM
same,GI50,[22],2430 nM
same,TGI,[22],7420 nM
same,GI50,[23],2270 nM
same,TGI,[23],6370 nM
same,GI50,[24],1830 nM
same,TGI,[24],7140 nM
same,GI50,[25],2330 nM
same,TGI,[25],6530 nM
same,GI50,[26],1900 nM
same,TGI,[26],5840 nM
same,GI50,[27],2600 nM
same,TGI,[27],> 100000 nM
same,GI50,[28],1510 nM
same,TGI,[28],4780 nM
same,GI50,[29],2920 nM
same,TGI,[29],8030 nM
same,GI50,[30],2020 nM
same,TGI,[30],5460 nM
same,GI50,[31],1760 nM
same,TGI,[31],4820 nM
same,GI50,[32],2210 nM
same,TGI,[32],5840 nM
same,GI50,[33],1830 nM
same,TGI,[33],4710 nM
same,GI50,[34],1980 nM
same,TGI,[34],5800 nM
same,GI50,[35],2560 nM
same,TGI,[35],6560 nM
same,GI50,[36],2120 nM
same,TGI,[36],> 100000 nM
same,GI50,[37],2210 nM
same,TGI,[37],6950 nM
same,GI50,[38],1660 nM
same,TGI,[38],4530 nM
same,GI50,[39],294 nM
same,TGI,[39],869 nM
same,GI50,[40],2680 nM
same,TGI,[40],8950 nM
same,GI50,[41],2950 nM
same,TGI,[41],> 100000 nM
same,GI50,[42],2760 nM
same,TGI,[42],8740 nM
same,GI50,[43],340 nM
same,TGI,[43],1160 nM
same,GI50,[44],2010 nM
same,TGI,[44],7290 nM
same,GI50,[45],2270 nM
same,TGI,[45],6090 nM
same,GI50,[46],1840 nM
same,TGI,[46],4730 nM
same,GI50,[47],2440 nM
same,TGI,[47],7130 nM
same,GI50,[48],1730 nM
same,TGI,[48],4730 nM
same,GI50,[49],2850 nM
same,TGI,[49],> 100000 nM
same,GI50,[50],2140 nM
same,TGI,[50],6190 nM
same,GI50,[51],1790 nM
same,TGI,[51],3230 nM
same,GI50,[52],1990 nM
same,TGI,[52],4840 nM
same,GI50,[53],1080 nM
same,TGI,[53],4030 nM
same,GI50,[54],308 nM
same,TGI,[54],946 nM
N#Cc1c(-c2ccc(Cl)cc2)nc(SCc2ccccc2)nc1N1CCNCC1,GI50,[55],1590 nM
same,TGI,[55],3200 nM
same,GI50,[1],1640 nM
same,TGI,[1],3020 nM
same,GI50,[2],1730 nM
same,TGI,[2],3180 nM
same,GI50,[3],1970 nM
same,TGI,[3],4510 nM
same,GI50,[4],2050 nM
same,TGI,[4],3550 nM
same,GI50,[5],1870 nM
same,TGI,[5],3570 nM
same,GI50,[6],1690 nM
same,TGI,[6],3220 nM
same,GI50,[7],1640 nM
same,TGI,[7],3120 nM
same,GI50,[8],1720 nM
same,TGI,[8],3190 nM
same,GI50,[9],1770 nM
same,TGI,[9],3210 nM
same,GI50,[10],1330 nM
same,TGI,[10],2680 nM
same,GI50,[11],1600 nM
same,TGI,[11],3180 nM
same,GI50,[13],1440 nM
same,TGI,[13],3710 nM
same,GI50,[14],1600 nM
same,TGI,[14],3690 nM
same,GI50,[15],1730 nM
same,TGI,[15],3370 nM
same,GI50,[56],1580 nM
same,TGI,[56],2940 nM
same,GI50,[17],1750 nM
same,TGI,[17],3400 nM
same,GI50,[18],1500 nM
same,TGI,[18],2900 nM
same,GI50,[19],1690 nM
same,TGI,[19],3140 nM
same,GI50,[20],1610 nM
same,TGI,[20],3060 nM
same,GI50,[21],1900 nM
same,TGI,[21],4490 nM
same,GI50,[57],1700 nM
same,TGI,[57],3100 nM
same,GI50,[22],1670 nM
same,TGI,[22],3040 nM
same,GI50,[23],1600 nM
same,TGI,[23],3030 nM
same,GI50,[24],1610 nM
same,TGI,[24],3080 nM
same,GI50,[25],1840 nM
same,TGI,[25],3530 nM
same,GI50,[26],1610 nM
same,TGI,[26],3080 nM
same,GI50,[27],1630 nM
same,TGI,[27],3030 nM
same,GI50,[28],1780 nM
same,TGI,[28],3200 nM
same,GI50,[29],1510 nM
same,TGI,[29],2890 nM
same,GI50,[30],1600 nM
same,TGI,[30],3020 nM
same,GI50,[31],1780 nM
same,TGI,[31],3190 nM
same,GI50,[32],1550 nM
same,TGI,[32],2960 nM
same,GI50,[33],1710 nM
same,TGI,[33],3320 nM
same,GI50,[34],1480 nM
same,TGI,[34],2810 nM
same,GI50,[58],1650 nM
same,TGI,[58],3080 nM
same,GI50,[35],1350 nM
same,TGI,[35],2640 nM
same,GI50,[36],1770 nM
same,TGI,[36],5810 nM
same,GI50,[37],1620 nM
same,TGI,[37],3200 nM
same,GI50,[38],1690 nM
same,TGI,[38],3370 nM
same,GI50,[39],1580 nM
same,TGI,[39],3020 nM
same,GI50,[40],1770 nM
same,TGI,[40],3270 nM
same,GI50,[41],1550 nM
same,TGI,[41],2990 nM
same,GI50,[42],1700 nM
same,TGI,[42],3070 nM
same,GI50,[43],1750 nM
same,TGI,[43],3160 nM
same,GI50,[44],1600 nM
same,TGI,[44],3020 nM
same,GI50,[45],1640 nM
same,TGI,[45],3080 nM
same,GI50,[46],1060 nM
same,TGI,[46],2390 nM
same,GI50,[47],1770 nM
same,TGI,[47],3290 nM
same,GI50,[48],1650 nM
same,TGI,[48],3260 nM
same,GI50,[49],1650 nM
same,TGI,[49],3020 nM
same,GI50,[50],1520 nM
same,TGI,[50],2890 nM
same,GI50,[51],1760 nM
same,TGI,[51],3140 nM
same,GI50,[52],1650 nM
same,TGI,[52],3040 nM
same,GI50,[53],1420 nM
same,TGI,[53],2960 nM
same,GI50,[54],1890 nM
same,TGI,[54],4200 nM
